The target of the experiment is hDGAT2 (Homo sapiens (Human), UniProt Q96PD7). The experiment can be described thus: DGAT2 Enzymatic Activity Assay. The following applies: hDGAT2 Sf-9 membrane prep; 25 μM diolein, 10 μM oleoyl-CoA; triolein product by LC/MS/MS; read-out: IC50 values for inhibition of DGAT2. It counts as biochemical. The procedure: Sf-9 insect cells were maintained in Grace's insect cell culture medium with 10% heated-inactivated fetal bovine serum, 1% Pluronic F-68 and 0.14 μg/ml Kanamycine sulfate in Erlenmeyer flasks at 28° C. in a shaker incubator. After infection with untagged hDGAT2 baculovirus at multiplicity of infection (MOI) 0.1 for 48 hours, cells were harvested. Cell pellets were suspended in buffer containing 10 mM Tris-HCl (pH 7.5), 1 mM EDTA (pH 8.0), 250 mM sucrose and Complete Protease Inhibitor Cocktail (Roche Diagnostics Corp., Indianapolis, Ill.), and sonicated on ice. Membrane fractions were isolated by ultracentrifugation (100,000×g pellet), resuspended in the same buffer, and frozen (−80° C.) for later use. The protein concentration was determined with the BCA Protein Assay kit (Pierce Biotechnology Inc., Rockford, Ill.). Expression of protein levels was analyzed by immunoblotting with goat polyclonal DGAT2 antibody C-15 and donkey anti-goat IgG HRP (Santa Cruz Biotechnology, Inc., Santa Cruz, Calif.) followed by detection with ECL reagent (GE Healthcare, Piscataway, N.J.).
hDGAT2, sequence (Q96PD7 whole entry): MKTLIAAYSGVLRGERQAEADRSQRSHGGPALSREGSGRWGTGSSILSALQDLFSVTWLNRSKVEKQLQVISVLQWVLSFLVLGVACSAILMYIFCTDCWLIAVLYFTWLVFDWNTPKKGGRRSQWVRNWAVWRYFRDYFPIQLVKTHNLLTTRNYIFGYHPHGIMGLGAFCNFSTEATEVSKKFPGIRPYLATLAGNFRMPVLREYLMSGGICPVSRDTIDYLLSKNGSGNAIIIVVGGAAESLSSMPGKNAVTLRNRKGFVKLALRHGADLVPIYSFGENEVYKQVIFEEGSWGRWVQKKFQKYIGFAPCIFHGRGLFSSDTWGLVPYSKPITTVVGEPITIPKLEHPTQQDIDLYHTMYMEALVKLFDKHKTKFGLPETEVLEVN
LC/MS/MS analyses were performed using Thermal Fisher's LX4-TSQ Vantage system. This system consists of an Agilent binary high-performance liquid chromatography (HPLC) pumps and a TSQ Vantage triple quadrupole MS/MS instrument. For each sample, 2 μL, samples from the top organic layer of in-plate liquid-liquid extraction were injected onto a Thermo Betabasic C4 column (2.1 mm×20 mm, 5 μm particle size). The samples were then eluted using the following conditions; mobile phase: methanol/water with 0.1% ammonium format=92/8 (v/v), flow rate: 1 mL/min, temperature: 25 C. Data was acquired in positive mode using a heated electrospray ionization (HESI) interface. The operational parameters for the TSQ Vantage MS/MS instrument were a spray voltage of 3000 V, capillary temperature of 280° C., vaporizer temperature 400° C., shealth gas 60 arbitrary unit, Aux gas 40 arbitrary units, S-lens 113 and collision gas 0.16 Pascals. […] (SRM) chromatograms of triolein (Q1: 902.9>Q3: 602.3) and internal standard (Q1: 902.9>Q3: 602.3) were collected for 40 sec. The peak area was integrated by Xcalibur Quan software. The ratio between the triolein generated in the reaction and spiked in internal standard were used to generate percentage inhibition and IC50 values. Compound percentage inhibition was calculated by the following formula: Inhibition %=1-[(compound response low control)/(high control low control)]×100%. Potent compounds were titrated and IC50 were calculated by 4 parameter sigmoidal curve fitting formula.
DGAT2 activity was determined by measuring the amount of enzymatic product triolein (1,2,3-Tri(cis-9-octadecenoyl)glycerol) using the membrane prep mentioned above. The assay was carried out in deep well 384 plates in a final volume of 40 μL at room temperature. The assay mixture contained the following: assay buffer (100 mM Tris.Cl, pH 7.0, 20 mM MgCl2, 5% ethanol), 25 μM of diolein, 10 μM of oleoyl-CoA and 10 ng/μL of DGAT2 membrane.
Consider `COc1cccc(-c2ccc(CNC(=O)C3CC3c3ccccc3)c3c2CCN(c2ncccn2)C3)c1` (centres unmarked) [Example 110, N-((5-(3-methoxyphenyl)-2-(pyrimidin-2-yl)-1,2,3,4-tetrahydroisoquinolin-8-yl)methyl)-2-phenylcyclopropanecarboxamide], for which the half-inhibitory concentration (IC50) (as a rule, the concentration needed to halve the response being measured) came out at 3200 nM. In the case of `Cc1noc([C@@H]2C[C@H]2C(=O)NCc2ccc(-c3cccc(C(F)(F)F)c3)c3c2CN(C(=O)Nc2ccon2)CC3)n1` (relative stereo) [Example 26, N-(isoxazol-3-yl)-8-(((trans)-2-(3-methyl-1,2,4-oxadiazol-5-yl)cyclopropanecarboxamido)methyl)-5-(3-(trifluoromethyl)phenyl)-3,4-dihydroisoquinoline-2(1H)-carboxamide] it was 126 nM. In the case of `Cc1noc([C@@H]2CC2C(=O)NCc2ccc(-c3cccc(OC(F)(F)F)c3)c3c2CN(CC(=O)N2[C@H](C)COC[C@H]2C)CC3)n1` (stereo partly drawn) [Example 108, (trans)-N-((2-(2-((3R,5R)-3,5-dimethylmorpholino)-2-oxoethyl)-5-(3-(trifluoromethoxy)phenyl)-1,2,3,4-tetrahydroisoquinolin-8-yl)methyl)-2-(3-methyl-1,2,4-oxadiazol-5-yl)cyclopropanecarboxamide] it was 7380 nM; in that of `COC(=O)c1cccc(-c2ccc(CNC(=O)C3CC3c3ccccc3)c3c2CCN(C(=O)NC2CC(F)(F)C2)C3)c1` (centres unmarked) [Example 56, methyl 3-(2-((3,3-difluorocyclobutyl)carbamoyl)-8-((2-phenylcyclopropanecarboxamido)methyl)-1,2,3,4-tetrahydroisoquinolin-5-yl) benzoate], 9.88 nM; in that of `COC(=O)c1cccc(-c2ccc(CNC(=O)C3CC3c3ccccc3)c3c2CCN(C(=O)c2c[nH]nc2C2CC2)C3)c1` (centres unmarked) [Example 121, methyl 3-(2-(3-cyclopropyl-1H-pyrazole-4-carbonyl)-8-((2-phenylcyclopropanecarboxamido)methyl)-1,2,3,4-tetrahydroisoquinolin-5-yl)benzoate], 632 nM. Turning to `COc1cccc(-c2ccc(CNC(=O)[C@@H]3C[C@H]3c3ccccc3)c3c2CCN(C(=O)Nc2ccon2)C3)c1` (relative stereo) [Example 23, N-(isoxazol-3-yl)-5-(3-methoxyphenyl)-8-(((trans)-2-phenylcyclopropanecarboxamido)methyl)-3,4-dihydroisoquinoline-2(1H)-carboxamide], the half-maximal inhibitory concentration (IC50) stood at 302 nM. To `CCCNC(=O)N1CCc2c(-c3cccc(C(F)(F)F)c3)ccc(CNC(=O)[C@@H]3C[C@H]3c3nc(C)no3)c2C1` (relative stereo) [Example 66, 8-(((trans)-2-(3-methyl-1,2,4-oxadiazol-5-yl)cyclopropanecarboxamido)methyl)-N-propyl-5-(3-(trifluoromethyl)phenyl)-3,4-dihydroisoquinoline-2(1H)-carboxamide] belongs 11.5 nM. To `CC(C)(C)NC(=O)N1CCc2c(-c3cccc(OC(F)(F)F)c3)ccc(CNC(=O)[C@H]3C[C@@H]3c3ccccc3)c2C1` (relative stereo) [Example 9, N-(tert-butyl)-8-(((trans)-2-phenylcyclopropanecarboxamido)methyl)-5-(3-(trifluoromethoxy)phenyl)-3,4-dihydroisoquinoline-2(1H)-carboxamide] belongs 31 nM; to `CC(C)(C)NC(=O)N1CCc2c(-c3cnn(-c4ccccc4)c3)ccc(CNC(=O)[C@@H]3C[C@H]3c3ccccc3)c2C1` (relative stereo) [Example 35, N-(tert-butyl)-5-(1-phenyl-1H-pyrazol-4-yl)-8-(((trans)-2-phenylcyclopropanecarboxamido)methyl)-3,4-dihydroisoquinoline-2(1H)-carboxamide], 1170 nM; to `COC(=O)C1CCN(C(=O)N2CCc3c(-c4cccc(OC)c4)ccc(CNC(=O)[C@@H]4C[C@H]4c4ccccc4)c3C2)CC1` [Example 63, methyl 1-(5-(3-methoxyphenyl)-8-(((trans)-2-phenylcyclopropanrcarboxamido)methyl)-1,2,3,4-tetrahydroisoquinoline-2-carbonyl)piperidine-4-carboxylate], 3090 nM.

In the case of `Cc1noc([C@H]2C[C@@H]2C(=O)NCc2ccc(-c3cccc(C(F)(F)F)c3)c3c2CN(C(=O)C(C)(C)O)CC3)n1` (stereo in doubt) [Example 116, (trans)-N-((2-(2-hydroxy-2-methylpropanoyl)-5-(3-(trifluoromethyl)phenyl)-1,2,3,4-tetrahydroisoquinolin-8-yl)methyl)-2-(3-methyl-1,2,4-oxadiazol-5-yl)cyclopropanecarboxamide], the IC50 stood at 1580 nM.

Take `CC(C)(C)NC(=O)N1CCc2c(-c3cccc4c3CNC4=O)ccc(CNC(=O)[C@@H]3C[C@H]3c3ccccc3)c2C1` (relative stereo) [Example 44, N-(tert-butyl)-5-(1-oxoisoindolin-4-yl)-8-(((trans)-2-phenylcyclopropanecarboxamido)methyl)-3,4-dihydroisoquinoline-2(1H)-carboxamide]: the 50% inhibitory concentration (IC50) was 7480 nM.

Turning to `COc1cccc(-c2ccc(CNC(=O)[C@H]3C[C@@H]3C(=O)O)c3c2CCN(C(=O)NC(C)(C)C)C3)c1` (relative stereo) [Example 84, (trans)-2-(((2-(tert-butylcarbamoyl)-5-(3-methoxyphenyl)-1,2,3,4-tetrahydroisoquinolin-8-yl)methyl)carbamoyl)cyclopropanecarboxylic acid], the IC50 turned out to be 1340 nM. In the case of `Cc1noc([C@@H]2C[C@H]2C(=O)NCc2ccc(-c3cccc(OC(F)(F)F)c3)c3c2CN(CC(=O)N2CCOCC2(C)C)CC3)n1` (relative stereo) [Example 91, (trans)-N-((2-(2-(3,3-dimethylmorpholino)-2-oxoethyl)-5-(3-(trifluoromethoxy)phenyl)-1,2,3,4-tetrahydroisoquinolin-8-yl)methyl)-2-(3-methyl-1,2,4-oxadiazol-5-yl)cyclopropanecarboxamide] it was 4300 nM; in that of `CCCNC(=O)N1CCc2c(-c3cccc(OC)c3)ccc(CNC(=O)[C@@H]3C[C@H]3c3ccccc3)c2C1` (relative stereo) [Example 70], 20.4 nM. On to `Cc1noc(C2CC2C(=O)NCc2ccc(-c3cccc(OC(F)(F)F)c3)c3c2CN(C(=O)NC2CCS(=O)(=O)C2)CC3)n1` (centres unmarked) [Example 60, N-(1,1-dioxidotetrahydrothiophen-3-yl)-8-((2-(3-methyl-1,2,4-oxadiazol-5-yl)cyclopropanecarboxamido)methyl)-5-(3-(trifluoromethoxy)phenyl)-3,4-dihydroisoquinoline-2(1H)-carboxamide], for which the IC50 came out at 463 nM. As to `COc1cccc(-c2ccc(CNC(=O)[C@@H]3C[C@H]3c3ccccc3)c3c2CCN(C(=O)C(CO)C(F)(F)F)C3)c1` (some centres unmarked) [Example 118], the half-inhibitory concentration (IC50) was determined as 1310 nM.

With `COc1cccc(-c2ccc(CNC(=O)[C@@H]3C[C@H]3c3ccccc3)c3c2CCN(C(=O)NC2(C)COC2)C3)c1` (relative stereo) [Example 68, 5-(3-methoxyphenyl)-N-(3-methyloxetan-3-yl)-8-(((trans)-2-phenylcyclopropanecarboxamido)methyl)-3,4-dihydroisoquinoline-2(1H)-carboxamide], the IC50 came to 13.8 nM. For the compound `COC(=O)c1cccc(-c2ccc(CNC(=O)C3CC3c3ccccc3)c3c2CCN(Cc2cccnc2)C3)c1` (centres unmarked) [Example 99, methyl 3-(8-((2-phenylcyclopropanecarboxamido)methyl)-2-(pyridin-3-ylmethyl)-1,2,3,4-tetrahydroisoquinolin-5-yl)benzoate], the 50% inhibitory concentration (IC50) was found to be 3900 nM. `Cc1noc(C2CC2C(=O)NCc2ccc(-c3cccc(OC(F)(F)F)c3)c3c2CN(CC(=O)NC(C)(C)C)CC3)n1` (centres unmarked) [Example 80, N-((2-(2-(tert-butylamino)-2-oxoethyl)-5-(3-(trifluoromethoxy)phenyl)-1,2,3,4-tetrahydroisoquinolin-8-yl)methyl)-2-(3-methyl-1,2,4-oxadiazol-5-yl)cyclopropanecarboxamide]: the IC50 was 477 nM.

The values above are taken from patent US10568876B2, “Tetrahydroisoquinoline derivatives useful as inhibitors of diacylglyceride O-acyltransferase 2” (Merck Sharp & Dohme Corp., priority 2014, dated 2020).
